Measured values: publication PMC9081768, “Spectroscopy, Structure, Biomacromolecular Interactions, and Antiproliferation Activity of a Fe(II) Complex With DPA-Bpy as Pentadentate Ligand” (Frontiers in Chemistry, 2022)

Molecular target: T1, human serum albumin (HSA) (Homo sapiens, UniProt P02768)
T1 construct: gene ALB
Assay: X-ray crystal structure at […] Å (seven molecules seen in the HSA Fe complex adduct)
Type: binding

T1 sequence (P02768 25-609): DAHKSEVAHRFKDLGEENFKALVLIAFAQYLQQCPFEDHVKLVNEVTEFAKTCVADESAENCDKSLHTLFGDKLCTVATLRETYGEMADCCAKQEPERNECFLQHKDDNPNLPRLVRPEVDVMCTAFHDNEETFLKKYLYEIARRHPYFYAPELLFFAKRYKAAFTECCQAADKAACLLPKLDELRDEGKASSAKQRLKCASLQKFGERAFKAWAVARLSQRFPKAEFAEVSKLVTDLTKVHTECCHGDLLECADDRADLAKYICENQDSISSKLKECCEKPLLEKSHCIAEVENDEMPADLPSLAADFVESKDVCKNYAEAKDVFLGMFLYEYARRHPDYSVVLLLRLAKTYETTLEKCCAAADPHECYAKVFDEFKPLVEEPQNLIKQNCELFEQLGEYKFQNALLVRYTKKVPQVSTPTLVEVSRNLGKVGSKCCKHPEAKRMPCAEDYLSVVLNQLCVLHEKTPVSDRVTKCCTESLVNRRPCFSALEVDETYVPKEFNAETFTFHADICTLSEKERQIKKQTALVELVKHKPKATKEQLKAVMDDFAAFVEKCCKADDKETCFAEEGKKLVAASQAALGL

SMILES: CCCCCCCCCCCCCCCC(=O)O [PA, palmitic acid]
- X-ray crystal structure at 2.4 Å (seven molecules seen in the HSA Fe complex add): seven palmitic acid (PA) molecules are present in the subdomains of I–III
